In ChEMBL document CHEMBL5518248, “Design, Synthesis, and Biological Evaluation of Novel Arylomycins against Multidrug-Resistant Gram-Negative Bacteria” (J Med Chem, 2024):

How the values were obtained:
Escherichia coli [1] = test: Antibacterial activity against Escherichia coli ATCC 35218 assessed as inhibition of bacterial growth measured after 18 to 20 hrs by broth microdilution method; format: functional; conditions: time 18-20 hrs
Escherichia coli [2] = test: Antibacterial activity against Escherichia coli 14-2 assessed as inhibition of bacterial growth measured after 18 to 20 hrs by broth microdilution method; format: functional; conditions: time 18-20 hrs
Escherichia coli [3] = test: Antibacterial activity against Escherichia coli 14-4 assessed as inhibition of bacterial growth measured after 18 to 20 hrs by broth microdilution method; format: functional; conditions: time 18-20 hrs
Klebsiella pneumoniae [4] = test: Antibacterial activity against Klebsiella pneumoniae 15-1 assessed as inhibition of bacterial growth measured after 18 to 20 hrs by broth microdilution method; format: functional; conditions: time 18-20 hrs
Klebsiella pneumoniae [5] = test: Antibacterial activity against Klebsiella pneumoniae 15-4 assessed as inhibition of bacterial growth measured after 18 to 20 hrs by broth microdilution method; format: functional; conditions: time 18-20 hrs
Klebsiella pneumoniae [6] = test: Antibacterial activity against Klebsiella pneumoniae 15-5 assessed as inhibition of bacterial growth measured after 18 to 20 hrs by broth microdilution method; format: functional; conditions: time 18-20 hrs
Acinetobacter baumannii [7] = test: Antibacterial activity against Acinetobacter baumannii 17-2 assessed as inhibition of bacterial growth measured after 18 to 20 hrs by broth microdilution method; format: functional; conditions: time 18-20 hrs
Acinetobacter baumannii [8] = test: Antibacterial activity against Acinetobacter baumannii 17-8 assessed as inhibition of bacterial growth measured after 18 to 20 hrs by broth microdilution method; format: functional; conditions: time 18-20 hrs
Pseudomonas aeruginosa [9] = test: Antibacterial activity against Pseudomonas aeruginosa 17-1 assessed as inhibition of bacterial growth measured after 18 to 20 hrs by broth microdilution method; format: functional; conditions: time 18-20 hrs
Pseudomonas aeruginosa [10] = test: Antibacterial activity against Pseudomonas aeruginosa 19-5 assessed as inhibition of bacterial growth measured after 18 to 20 hrs by broth microdilution method; format: functional; conditions: time 18-20 hrs
HepG2 [11] = test: Cytotoxicity against human HepG2 cells assessed as inhibition of cell growth incubated for 24 hrs by CCK8 method; format: functional, cell-based; conditions: HepG2, 24 h
HepG2 [12] = test: Cytotoxicity against human HepG2 cells assessed as inhibition of cell growth at 100 uM incubated for 24 hrs by CCK8 method relative to control; format: functional
[13] = Cytotoxicity against HEK293T cells assessed as inhibition of cell growth incubated for 24 hrs by CCK8 method; format: toxicity, cell-based, HEK-293T; conditions: human
[14] = Cytotoxicity against HEK293T cells assessed as inhibition of cell growth at 100 uM incubated for 24 hrs by CCK8 method relative to control; format: toxicity, cell-based, HEK-293T; conditions: human
Jurkat [15] = test: Cytotoxicity against human Jurkat cells assessed as inhibition of cell growth incubated for 24 hrs by CCK8 method; format: functional, cell-based
Jurkat [16] = test: Cytotoxicity against human Jurkat cells assessed as inhibition of cell growth at 100 uM incubated for 24 hrs by CCK8 method relative to control; format: functional

SMILES | MIC (Escherichia coli [1]) [µg/mL] | MIC (Escherichia coli [2]) [µg/mL] | MIC (Escherichia coli [3]) [µg/mL] | MIC (Klebsiella pneumoniae [4]) [µg/mL] | MIC (Klebsiella pneumoniae [5]) [µg/mL] | MIC (Klebsiella pneumoniae [6]) [µg/mL] | MIC (Acinetobacter baumannii [7]) [µg/mL] | MIC (Acinetobacter baumannii [8]) [µg/mL] | MIC (Pseudomonas aeruginosa [9]) [µg/mL] | MIC (Pseudomonas aeruginosa [10]) [µg/mL] | IC50 (HepG2 [11]) [µM] | inhibition at 100 µM (HepG2 [12]) [%] | IC50 at 24 h [13] [µM] | inhibition at 24 h, 100 µM [14] [%] | IC50 (Jurkat [15]) [µM] | inhibition at 100 µM (Jurkat [16]) [%]
CCCCSSCc1ccc(-c2ncc(C(=O)N[C@@H](CCN)C(=O)N(C)[C@@H]3C(=O)N[C@@H](C)C(=O)N[C@H](C(=O)NCC#N)Cc4ccc(OCCN)c(c4)-c4cc3ccc4OCCN)c(C)n2)cc1.O=C(O)C(F)(F)F.O=C(O)C(F)(F)F.O=C(O)C(F)(F)F.O=C(O)C(F)(F)F | ≤ 0.03 | ≤ 0.03 | ≤ 0.03 | ≤ 0.03 | ≤ 0.03 | ≤ 0.03 | 0.5 | 0.125 | 8 | 8 | > 100 | -3.33 | > 100 | 41 | > 100 | 50.6
Cc1nc(-c2ccc(CSSC3CCCC3)cc2)ncc1C(=O)N[C@@H](CCN)C(=O)N(C)[C@@H]1C(=O)N[C@@H](C)C(=O)N[C@H](C(=O)NCC#N)Cc2ccc(OCCN)c(c2)-c2cc1ccc2OCCN.O=C(O)C(F)(F)F.O=C(O)C(F)(F)F.O=C(O)C(F)(F)F.O=C(O)C(F)(F)F | ≤ 0.03 | 0.125 | ≤ 0.03 | 0.125 | 0.06 | 0.06 | 1 | 0.25 | 4 | 4 | > 100 | 3.22 | > 100 | 42.6 | > 100 | 35.4
Cc1nc(-c2ccc(CSSC(C)(C)C)cc2)ncc1C(=O)N[C@@H](CCN)C(=O)N(C)[C@@H]1C(=O)N[C@@H](C)C(=O)N[C@H](C(=O)NCC#N)Cc2ccc(OCCN)c(c2)-c2cc1ccc2OCCN.O=C(O)C(F)(F)F.O=C(O)C(F)(F)F.O=C(O)C(F)(F)F.O=C(O)C(F)(F)F | ≤ 0.03 | ≤ 0.03 | ≤ 0.03 | ≤ 0.03 | ≤ 0.03 | ≤ 0.03 | 0.125 | 0.125 | 4 | 4 | > 100 | 28.4 | > 100 | 43 | > 100 | 34.6
Cc1nc(-c2ccc(CSSCC[Si](C)(C)C)cc2)ncc1C(=O)N[C@@H](CCN)C(=O)N(C)[C@@H]1C(=O)N[C@@H](C)C(=O)N[C@H](C(=O)NCC#N)Cc2ccc(OCCN)c(c2)-c2cc1ccc2OCCN.O=C(O)C(F)(F)F.O=C(O)C(F)(F)F.O=C(O)C(F)(F)F.O=C(O)C(F)(F)F | 0.25 | 0.5 | 1 | 1 | 1 | 1 | 1 | 1 | 4 | 4 |  |  |  |  |  | 
CSSCc1ccc(-c2ncc(C(=O)N[C@@H](CCN)C(=O)N(C)[C@@H]3C(=O)N[C@@H](C)C(=O)N[C@H](C(=O)NCC#N)Cc4ccc(OCCN)c(c4)-c4cc3ccc4OCCN)c(C)n2)cc1.O=C(O)C(F)(F)F.O=C(O)C(F)(F)F.O=C(O)C(F)(F)F.O=C(O)C(F)(F)F | 0.06 | 0.25 | 0.5 | 0.25 | 0.5 | 0.5 | 4 | 1 | 64 | 64 |  |  |  |  |  | 
Cc1nc(-c2ccc(C(C)(C)C)cc2)ncc1C(=O)N[C@@H](CCN)C(=O)N(C)[C@H]1Cc2ccc(OCCN)c(c2)-c2cc(ccc2OCCN)C[C@@H](C(=O)NCC#N)NC(=O)[C@H](C)NC1=O.Cl.Cl.Cl.Cl | 61 | 64 | 64 | > 64 | > 64 | > 64 | > 64 | > 64 | > 64 | > 64 |  |  |  |  |  | 

Second part, led by results:

MIC (Escherichia coli [1]) [µg/mL] | MIC (Escherichia coli [2]) [µg/mL] | MIC (Escherichia coli [3]) [µg/mL] | MIC (Klebsiella pneumoniae [4]) [µg/mL] | MIC (Klebsiella pneumoniae [5]) [µg/mL] | MIC (Klebsiella pneumoniae [6]) [µg/mL] | MIC (Acinetobacter baumannii [7]) [µg/mL] | MIC (Acinetobacter baumannii [8]) [µg/mL] | MIC (Pseudomonas aeruginosa [9]) [µg/mL] | MIC (Pseudomonas aeruginosa [10]) [µg/mL] | SMILES | IC50 (HepG2 [11]) [µM] | inhibition at 100 µM (HepG2 [12]) [%] | IC50 at 24 h [13] [µM] | inhibition at 24 h, 100 µM [14] [%] | IC50 (Jurkat [15]) [µM] | inhibition at 100 µM (Jurkat [16]) [%]
≤ 0.03 | ≤ 0.03 | ≤ 0.03 | ≤ 0.03 | 0.06 | ≤ 0.03 | 0.25 | 0.125 | 4 | 8 | CCCSSCc1ccc(-c2ncc(C(=O)N[C@@H](CCN)C(=O)N(C)[C@@H]3C(=O)N[C@@H](C)C(=O)N[C@H](C(=O)NCC#N)Cc4ccc(OCCN)c(c4)-c4cc3ccc4OCCN)c(C)n2)cc1.O=C(O)C(F)(F)F.O=C(O)C(F)(F)F.O=C(O)C(F)(F)F.O=C(O)C(F)(F)F | > 100 | -3.61 | > 100 | 29.9 | > 100 | 32.5
≤ 0.03 | ≤ 0.03 | ≤ 0.03 | ≤ 0.03 | 0.125 | 0.06 | 1 | 0.5 | 4 | 4 | CCCSSc1ccc(-c2ncc(C(=O)N[C@@H](CCN)C(=O)N(C)[C@@H]3C(=O)N[C@@H](C)C(=O)N[C@H](C(=O)NCC#N)Cc4ccc(OCCN)c(c4)-c4cc3ccc4OCCN)c(C)n2)cc1.O=C(O)C(F)(F)F.O=C(O)C(F)(F)F.O=C(O)C(F)(F)F.O=C(O)C(F)(F)F | > 100 | -6.72 | > 100 | 30.6 | > 100 | 42.4
≤ 0.03 | ≤ 0.03 | ≤ 0.03 | ≤ 0.03 | 0.06 | 0.06 | 0.5 | 0.125 | 4 | 4 | Cc1nc(-c2ccc(CSSCC(C)C)cc2)ncc1C(=O)N[C@@H](CCN)C(=O)N(C)[C@@H]1C(=O)N[C@@H](C)C(=O)N[C@H](C(=O)NCC#N)Cc2ccc(OCCN)c(c2)-c2cc1ccc2OCCN.O=C(O)C(F)(F)F.O=C(O)C(F)(F)F.O=C(O)C(F)(F)F.O=C(O)C(F)(F)F | > 100 | -4.7 | > 100 | 42.7 | > 100 | 18.4
≤ 0.03 | ≤ 0.03 | ≤ 0.03 | ≤ 0.03 | ≤ 0.03 | ≤ 0.03 | 0.25 | 0.5 | 4 | 4 | Cc1nc(-c2ccc(SSC(C)(C)C)cc2)ncc1C(=O)N[C@@H](CCN)C(=O)N(C)[C@@H]1C(=O)N[C@@H](C)C(=O)N[C@H](C(=O)NCC#N)Cc2ccc(OCCN)c(c2)-c2cc1ccc2OCCN.O=C(O)C(F)(F)F.O=C(O)C(F)(F)F.O=C(O)C(F)(F)F.O=C(O)C(F)(F)F | > 100 | -1.65 | > 100 | 51.5 | > 100 | 38.2
≤ 0.03 | ≤ 0.03 | 0.06 | ≤ 0.03 | ≤ 0.03 | ≤ 0.03 | 0.5 | 1 | 32 | 16 | Cc1nc(-c2ccc(SSC(C)(C)C)cc2)ncc1C(=O)N[C@@H](CCN)C(=O)N(C)[C@@H]1C(=O)N[C@@H](C)C(=O)N[C@H](C(=O)O)Cc2ccc(OCCN)c(c2)-c2cc1ccc2OCCN.O=C(O)C(F)(F)F.O=C(O)C(F)(F)F.O=C(O)C(F)(F)F.O=C(O)C(F)(F)F | > 100 | -4.95 | > 100 | 26.1 | > 100 | 44.8
≤ 0.03 | ≤ 0.03 | ≤ 0.03 | ≤ 0.03 | ≤ 0.03 | ≤ 0.03 | 0.25 | 0.5 | 4 | 32 | Cc1nc(-c2ccc(CSSC(C)(C)C)cc2)ncc1C(=O)N[C@@H](CCN)C(=O)N(C)[C@@H]1C(=O)N[C@@H](C)C(=O)N[C@H](C(=O)O)Cc2ccc(OCCN)c(c2)-c2cc1ccc2OCCN.O=C(O)C(F)(F)F.O=C(O)C(F)(F)F.O=C(O)C(F)(F)F.O=C(O)C(F)(F)F | > 100 | -0.02 | > 100 | 36.6 | > 100 | 27.7
≤ 0.03 | ≤ 0.03 | ≤ 0.03 | ≤ 0.03 | ≤ 0.03 | ≤ 0.03 | 1 | 0.25 | 8 | 8 | CSSC(C)(C)c1ccc(-c2ncc(C(=O)N[C@@H](CCN)C(=O)N(C)[C@@H]3C(=O)N[C@@H](C)C(=O)N[C@H](C(=O)NCC#N)Cc4ccc(OCCN)c(c4)-c4cc3ccc4OCCN)c(C)n2)cc1.O=C(O)C(F)(F)F.O=C(O)C(F)(F)F.O=C(O)C(F)(F)F.O=C(O)C(F)(F)F | > 100 | -12.6 | > 100 | 48.1 | > 100 | 39.1
